Test results as given in patent publication US8101601B2, “Aminoacyl prodrug derivatives and medicaments for the treatment of thromboembolitic disorders” (Bayer Pharma Aktiengesellschaft, priority 2007, dated 2012).
Values after ≈ are worked out from the molar mass of the structure shown. Counter-ions that a name gives are not always drawn.

How the values were obtained:
[1] = Stability in buffer at various pH values (HPLC, 37° C., 24 h); type: physicochemical
Procedure: 0.3 mg of the test substance is weighed into a 2 ml HPLC vial and 0.5 ml of acetonitrile is added. The substance is dissolved by putting the sample vessel in an ultrasonic bath for about 10 seconds. Then 0.5 ml of the respective buffer solution is added, and the sample is again treated in the ultrasonic bath.
• pH 4.0:1 liter of Millipore water is adjusted to pH 4.0 with 1 N hydrochloric acid; • pH 7.4: 90 g of sodium chloride, 13.61 g of potassium dihydrogen phosphate and 83.35 g of 1 M sodium hydroxide solution are made up to 1 liter with Millipore water and then diluted 1:10.
5 μl portions of the test solution are analysed by HPLC for their content of unchanged test substance every hour over a period of 24 hours at 37° C. The percentage areas of the appropriate peaks are used for quantification.
Agilent 1100 with DAD (G1314A), binary pump (G1312A), autosampler (G1329A), column oven (G1316A), thermostat (G1330A); column: Kromasil 100 C18, 125 mm×4.6 mm, 5 μm; column temperature: 30° C.; eluent A: water+5 ml of perchloric acid/liter, eluent B: acetonitrile.
The ratios of the peak areas (F) at the respective time points in relation to the peak areas at the starting time are shown in Table 2 for representative exemplary embodiments: […]

[2] = Determination of the solubility (suspension shaken 24 h at room temperature, HPLC); type: physicochemical; settings: dilute hydrochloric acid (pH 4), room temperature, 24 h; for solubility at 24 h: pH 4, aqueous buffer, thermodynamic from solid
Procedure: […] This suspension is shaken at room temperature for 24 h. After ultracentrifugation at 224 000 g for 30 min, the supernatant is diluted with DMSO and analysed by HPLC. A two-point calibration plot of the test compound in DMSO is used for quantification.
Agilent 1100 with DAD (G1315A), quat. pump (G1311A), autosampler CTC HTS PAL, degasser (G1322A) and column thermostat (G1316A); column: Zorbax Extend-C18 3.5μ; temperature: 40° C.; eluent A: water+5 ml of perchloric acid/liter, eluent B: acetonitrile; flow rate: 0.7 ml/min; gradient: 0-0.5 min 98% A, 2% B; ramp 0.5-4.5 min 10% A, 90% B; 4.5-6 min 10% A, 90% B; ramp 6.5-6.7 min 98% A, 2% B; 6.7-7.5 min 98% A, 2% B.

[3] = buffer pH 4, 37° C., hydrobromide

| SMILES | % test substance after 4 h [F(t = 4 h) × 100/F(t = 0 h)] ([1]; buffer pH 4, 37° C.) | % Test substance after 24 h [F(t = 24 h) × 100/F(t = 0 h)] ([1]; buffer pH 4, 37° C.) | % test substance after 4 h [F(t = 4 h) × 100/F(t = 0 h)] ([1]; buffer pH 7.4, 37° C.) | % Test substance after 24 h [F(t = 24 h) × 100/F(t = 0 h)] ([1]; buffer pH 7.4, 37° C.) | other results |
| --- | --- | --- | --- | --- | --- |
| N[C@@H](Cc1c[nH]cn1)C(=O)OCC(=O)N(C[C@H]1CN(c2ccc(N3CCOCC3=O)cc2)C(=O)O1)C(=O)c1ccc(Cl)s1 [Example 8, 2-[[(5-Chloro-2-thienyl)carbonyl]({(5S)-2-oxo-3-[4-(3-oxomorpholin-4-yl)phenyl]-1,3-oxazolidin-5-yl}methyl)amino]-2-oxoethyl L-histidinate dihydrochloride] | 99% | 81% | 2% | 0% | – |
| CNCCCCC(=O)N(C[C@H]1CN(c2ccc(N3CCOCC3=O)cc2)C(=O)O1)C(=O)c1ccc(Cl)s1 [Example 14, 5-Chloro-N-[5-(methylamino)pentanoyl]-N-({(5S)-2-oxo-3-[4-(3-oxomorpholin-4-yl)phenyl]-1,3-oxazolidin-5-yl}methyl)thiophene-2-carboxamide hydrobromide] | – | – | 0% | 0% | % test substance after 4 h [F(t = 4 h) × 100/F(t = 0 h)] [1, 3]: 57%; % Test substance after 24 h [F(t = 24 h) × 100/F(t = 0 h)] [1, 3]: 0% |
| CC(C)[C@H](N)C(=O)SCC(=O)N(C[C@H]1CN(c2ccc(N3CCOCC3=O)cc2)C(=O)O1)C(=O)c1ccc(Cl)s1 [Example 10, S-{2-[[(5-Chloro-2-thienyl)carbonyl]({(5S)-2-oxo-3-[4-(3-oxomorpholin-4-yl)phenyl]-1,3-oxazolidin-5-yl}methyl)amino]-2-oxoethyl}(2S)-2-amino-3-methylbutanethioate hydrobromide] | 100% | 99% | – | 0% | % test substance after 4 h [F(t = 4 h) × 100/F(t = 0 h)] ([1]; buffer pH 7.4, 37° C., hydrobromide): 8%; solubility at 24 h [2]: 680 µg/mL |
| CC(C)[C@H](N)C(=O)SCC(=O)N(C[C@H]1CN(c2ccc(N3CCOCC3=O)cc2)C(=O)O1)C(=O)c1ccc(Cl)s1 [Example 11, S-{2-[[(5-Chloro-2-thienyl)carbonyl]({(5S)-2-oxo-3-[4-(3-oxomorpholin-4-yl)phenyl]-1,3-oxazolidin-5-yl}methyl)amino]-2-oxoethyl}(2S)-2-amino-3-methylbutanethioate hydrochloride] | – | – | – | – | % test substance after 4 h [F(t = 4 h) × 100/F(t = 0 h)] ([1]; buffer pH 7.4, 37° C., hydrochloride): 10%; Solubility ([2]; hydrochloride): 960 µg/mL |
| O=C(NC[C@H]1CN(c2ccc(N3CCOCC3=O)cc2)C(=O)O1)c1ccc(Cl)s1 [compound (A), 5-Chloro-N-({(5S)-2-oxo-3-[4-(3-oxomorpholin-4-yl)phenyl]-1,3-oxazolidin-5-yl}methyl)thiophene-2-carboxamide, reference compound] | – | – | – | – | solubility at 24 h [2]: 8.1 µg/mL (≈ 18.6 µM) |

Continued, in another order:

| % test substance after 4 h [F(t = 4 h) × 100/F(t = 0 h)] ([1]; buffer pH 4, 37° C.) | % Test substance after 24 h [F(t = 24 h) × 100/F(t = 0 h)] ([1]; buffer pH 4, 37° C.) | % test substance after 4 h [F(t = 4 h) × 100/F(t = 0 h)] ([1]; buffer pH 7.4, 37° C.) | % Test substance after 24 h [F(t = 24 h) × 100/F(t = 0 h)] ([1]; buffer pH 7.4, 37° C.) | SMILES | other results |
| --- | --- | --- | --- | --- | --- |
| 100% | 97% | 0% | 0% | NCCCC(=O)N(C[C@H]1CN(c2ccc(N3CCOCC3=O)cc2)C(=O)O1)C(=O)c1ccc(Cl)s1 [Example 19, N-(4-Aminobutanoyl)-5-chloro-N-({(5S)-2-oxo-3-[4-(3-oxomorpholin-4-yl)phenyl]-1,3-oxazolidin-5-yl}methyl)thiophene-2-carboxamide hydrochloride] | – |
| 100% | 99% | – | – | CNCCCCCC(=O)N(C[C@H]1CN(c2ccc(N3CCOCC3=O)cc2)C(=O)O1)C(=O)c1ccc(Cl)s1 [Example 18, 5-Chloro-N-[6-(methylamino)hexanoyl]-N-({(5S)-2-oxo-3-[4-(3-oxomorpholin-4-yl)phenyl]-1,3-oxazolidin-5-yl}methyl)thiophene-2-carboxamide hydrochloride] | – |
